# Test results published in patent publication US20240327429A1, “[1,3]Thiazolo[4,5-d]-pyrimidon-7-ones as inhibitors of NOX4” (Boehringer Ingelheim International GmbH, priority 2023, published 2024).
# Several values for one entry are separate records, joined by “and”; a condition that tells them apart may be missing. Equal entries are not always repeated.
# Assays:
# human NOX1 (hNOX1) = biological target: T1, human NOX1 (hNOX1) (Homo sapiens, UniProt Q9Y5S8); assay: NOX1 inhibition assay (L-012), HEK293 cells stably overexpressing human NOX1; assay type: cell-based; conditions: HEK293-hNOX1, PMA stimulated
# T1 construct: pLV-CMV-hNOX1-puro (NM_007052.5); host or cells: HEK293 (CLS GmbH), lentiviral transduction
# T1 sequence (Q9Y5S8 1-564): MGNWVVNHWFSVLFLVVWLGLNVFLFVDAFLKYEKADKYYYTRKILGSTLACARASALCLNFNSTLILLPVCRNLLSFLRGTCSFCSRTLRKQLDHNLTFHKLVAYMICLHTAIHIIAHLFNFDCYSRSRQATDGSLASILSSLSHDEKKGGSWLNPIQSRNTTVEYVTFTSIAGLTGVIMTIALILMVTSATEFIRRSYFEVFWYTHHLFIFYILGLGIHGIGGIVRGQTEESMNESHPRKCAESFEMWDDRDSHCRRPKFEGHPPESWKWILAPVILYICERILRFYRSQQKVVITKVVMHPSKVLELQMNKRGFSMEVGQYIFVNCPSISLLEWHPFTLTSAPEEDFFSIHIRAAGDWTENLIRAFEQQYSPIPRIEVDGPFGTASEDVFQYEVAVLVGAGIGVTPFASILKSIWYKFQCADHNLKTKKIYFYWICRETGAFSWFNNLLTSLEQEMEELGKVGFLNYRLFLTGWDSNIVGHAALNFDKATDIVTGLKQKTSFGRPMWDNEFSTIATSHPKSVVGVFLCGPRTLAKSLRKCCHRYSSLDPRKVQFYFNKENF
# T1 sequence (P13498 2-195 partner limits assumed): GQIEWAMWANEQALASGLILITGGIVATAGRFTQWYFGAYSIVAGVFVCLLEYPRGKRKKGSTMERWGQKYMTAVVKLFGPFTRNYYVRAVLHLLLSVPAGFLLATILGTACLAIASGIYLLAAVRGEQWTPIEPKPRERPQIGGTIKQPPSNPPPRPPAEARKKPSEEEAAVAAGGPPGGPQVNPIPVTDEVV
# Excerpt: Plasmids are Purchased from Vectorbuilder. • for HEK-hNOX1 all necessary subunits are cloned accordingly: • pLV-CMV-hNOX1-puro (NM_007052.5) • pLV-CMV-hNOXO1-blas (NM_172168.3) • pLV-CMV-hp22phox-hygro (NM_000101.4) • pLV-CMV-hNOXA1-neo (NM_006647.2) • for HEK-hNOX3 • pLV-CMV-hNOX3-puro (NM_015718.3)
# 3rd generation lentiviral particles are produced in HEK293 suspension cells by transient transfection of three helper and expression plasmids. Crucial lentivirus supernatants are harvested, clarified by filtration and concentrated by precipitation. Lentivirus titers are determined in transducing units in (TU/mL) by transduction of HT1080 cells and colony forming assay. Parental HEK293 cells, purchased from CLS GmbH, are transduced with replication-incompetent 3rd generation lentiviral particles (MOI 2) and expanded for at least 2 weeks before cryopreservation of tested lots. During cultivation, medium is changed three times per week and cells are sub-cultured at least once per week. Selection antibiotics are added according to the plasmids (1 μg/ml puromycin, 1.5 μg/ml blasticidin, 200 μg/ml G418 and 100 μg/ml hygromycin).
# Evaluation of the NOX4 inhibitors on NOX1 activity is assessed in HEK293 cells stably overexpressing human NOX1 (hNOX1).
# Lastly, 8-amino-5-chloro-2,3-dihydro-7-phenyl-pyrido[3,4-d]pyridazine-1,4-dione sodium salt (L-012, CAS 143556-24-5) is added at 400 μM to all wells, and cells are incubated in an incubator for an additional 3 h. Afterwards luminescence is measured with a SpectraMax Paradigm Microplate Reader.
# human NOX4 (hNOX4) = biological target: T2, human NOX4 (hNOX4) (Homo sapiens, UniProt Q9NPH5); assay: cell-based
# T2 sequence (Q9NPH5 1-578): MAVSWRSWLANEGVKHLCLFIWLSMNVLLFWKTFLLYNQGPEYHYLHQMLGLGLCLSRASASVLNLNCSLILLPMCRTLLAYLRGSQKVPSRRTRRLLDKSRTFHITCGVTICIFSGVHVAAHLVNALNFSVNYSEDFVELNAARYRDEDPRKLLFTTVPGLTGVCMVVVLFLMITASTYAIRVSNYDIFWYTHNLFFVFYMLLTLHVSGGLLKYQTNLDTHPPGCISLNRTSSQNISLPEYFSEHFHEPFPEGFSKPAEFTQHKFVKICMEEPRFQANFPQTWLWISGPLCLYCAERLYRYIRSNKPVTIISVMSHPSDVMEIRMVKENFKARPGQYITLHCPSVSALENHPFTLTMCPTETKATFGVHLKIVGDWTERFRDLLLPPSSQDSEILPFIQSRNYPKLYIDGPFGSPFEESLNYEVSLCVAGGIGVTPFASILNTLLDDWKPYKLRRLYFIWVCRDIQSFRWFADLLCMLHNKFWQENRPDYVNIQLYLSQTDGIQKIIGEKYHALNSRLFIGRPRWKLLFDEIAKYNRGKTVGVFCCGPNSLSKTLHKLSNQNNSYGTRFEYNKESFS
# T2 sequence (P13498 2-195 partner limits assumed): T1 sequence (P13498 2-195 partner limits assumed)
# Method: The synthetic gene phNOX4_DNA3_1_Zeo (Accession: AAF68973) is assembled from synthetic oligonucleotides and/or PCR products. The fragment is cloned into pcDNA3.1_Zeo_A011 using NheI and XhoI cloning sites. The plasmid DNA is purified from transformed bacteria and its concentration is determined by UV spectroscopy. The final construct is verified by sequencing. The plasmid is transfected via electroporation (Amaxa electroporation device) in combination with Nucleofector Kit V. Selection of NOX4 overexpressing genes is achieved using selection antibiotic Zeocin.
# The inhibitory activity of the example compounds of the invention is determined using the following procedure:
# Cells are cultured in the Dulbecco's Modified Eagle Medium (DMEM) media containing 4.5 g/L glucose supplemented with 10% fetal calf serum and 250 μg/ml Zeocin in an incubator at 37° C. with 5% CO2. For the assay, cells are seeded in 384 well plates.
# After incubation Lumigen HyPerBlu™ is added and cells are incubated for additional 30 min at 24° C. in a humidified incubator. Next, luminescence is measured using an Envision Multimode Plate reader to determine levels of produced H2O2 in the wells.
SMILES,IC50 (human NOX1 (hNOX1)) [nM],IC50 (human NOX4 (hNOX4))
O=c1c2scnc2nc(SCc2ccc(C(F)(F)F)cc2Cl)n1-c1cnc(O)c(F)c1 [Example 46],48400,130 nM
Cc1cc(F)cc(C)c1CSc1nc2ncsc2c(=O)n1-c1cnc(O)nc1 [Example 55],16500,116 nM
O=c1c2scnc2nc(SCc2ccc(C(F)(F)F)cc2)n1-c1cc(F)c(O)c(F)c1 [Example 7],> 100000,77 nM
Cc1cc(F)ccc1CSc1nc2ncsc2c(=O)n1-c1cc(F)c(O)c(F)c1 [Example 9],1900,29 nM
Cc1cc(Cl)ccc1CSc1nc2ncsc2c(=O)n1-c1ccc(O)nn1 [Example 62],> 100000,127 nM
O=c1c2scnc2nc(SCc2ccc(C(F)(F)F)cc2)n1-c1ccc(O)nc1 [Example 27],76000,135 nM
Cc1c(F)cccc1CSc1nc2ncsc2c(=O)n1-c1cnc(O)c(F)c1 [Example 40],32900,59 nM
N#Cc1cc(-n2c(SCc3c(F)cc(F)cc3F)nc3ncsc3c2=O)ccc1O [Example 18],60,117 nM
O=c1c2scnc2nc(SCc2ccc(C(F)(F)F)cc2F)n1-c1cc(F)c(O)c(F)c1 [Example 6],> 100000,87 nM
O=c1c2scnc2nc(SCc2ccc(Cl)cc2)n1-c1ccc(O)nc1 [Example 25],> 100000,100 nM and 101 nM
"O=c1c2scnc2nc(SCc2ccc(Cl)cc2F)n1-c1ccc(O)nn1 [Example 61, 5-((4-Chloro-2-fluorobenzyl)thio)-6-(6-hydroxypyridazin-3-yl)thiazolo[4,5-d]pyrimidin-7(6H)-one]",> 100000,103 nM
O=c1c2scnc2nc(SCc2ccc(Br)cc2F)n1-c1cnc(O)c(F)c1 [Example 34],14700,29 nM
O=c1c2scnc2nc(SCc2ccc(C(F)(F)F)cc2F)n1-c1cnc(O)nc1 [Example 57],–,124 nM
O=c1c2scnc2nc(SCc2c(F)cc(F)cc2F)n1-c1ccc(O)cn1 [Example 19],16900,–
"O=c1c2scnc2nc(SCc2ccc(Cl)cc2F)n1-c1cc(F)c(O)c(F)c1 [Example 2, 5-((4-Chloro-2-fluorobenzyl)thio)-6-(3,5-difluoro-4-hydroxyphenyl)thiazolo[4,5-d]-pyrimidin-7(6H)-one]",–,39 nM
Cc1cc(F)cc(C)c1CSc1nc2ncsc2c(=O)n1-c1cc(F)c(O)c(F)c1 [Example 4],–,91 nM
Cc1cc(Cl)ccc1CSc1nc2ncsc2c(=O)n1-c1cnc(O)nc1 [Example 54],–,111 nM

# Continued, values first:
IC50 (human NOX1 (hNOX1)) [nM],IC50 (human NOX4 (hNOX4)),SMILES
> 100000,33 nM,O=c1c2scnc2nc(SCc2ccc(Cl)cc2F)n1-c1cnc(O)c(F)c1 [Example 35]
1700,73 nM,Cc1cc(Cl)ccc1CSc1nc2ncsc2c(=O)n1-c1cc(F)c(O)c(F)c1 [Example 3]
500,27 nM,"O=c1c2scnc2nc(SCc2c(F)cc(F)cc2F)n1-c1cc(F)c(O)cc1F [Example 10, 6-(2,5-Difluoro-4-hydroxyphenyl)-5-((2,4,6-trifluorobenzyl)thio)thiazolo[4,5-d]pyrimidin-7(6H)-one]"
21200,52 nM,"O=c1c2scnc2nc(SCc2c(F)cc(F)cc2F)n1-c1cnc(O)c(F)c1F [Example 52, 6-(4,5-Difluoro-6-hydroxypyridin-3-yl)-5-((2,4,6-trifluorobenzyl)thio)thiazolo[4,5-d]-pyrimidin-7(6H)-one]"
5600,62 nM,O=c1c2scnc2nc(SCc2ccc(C(F)(F)F)cc2F)n1-c1cnc(O)c(F)c1 [Example 42]
14400,314 nM,O=c1c2scnc2nc(SCc2c(F)cc(F)cc2F)n1-c1ccc(O)cc1Cl [Example 17]
> 100000,165 nM,O=c1c2scnc2nc(SCc2c(F)cc(F)cc2F)n1-c1ccc(O)nn1 [Example 67]
18800,34 nM,Cc1cc(Cl)ccc1CSc1nc2ncsc2c(=O)n1-c1cnc(O)c(F)c1 [Example 37]
> 100000,34 nM,Cc1cc(F)ccc1CSc1nc2ncsc2c(=O)n1-c1cnc(O)c(F)c1 [Example 36]
7000,127 nM,O=c1c2scnc2nc(SCc2c(F)cc(F)cc2F)n1-c1cc(F)c(O)cn1 [Example 20]
300,24 nM,O=c1c2scnc2nc(SCc2ccc(Cl)cc2)n1-c1cc(F)c(O)c(F)c1 [Example 5]
> 100000,48 nM,O=c1c2scnc2nc(SCc2ccc(F)cc2F)n1-c1cnc(O)c(F)c1 [Example 38]
9800,60 nM,O=c1c2scnc2nc(SCc2c(F)cc(F)cc2Cl)n1-c1cnc(O)c(F)c1 [Example 41]
> 100000,63 nM,Cc1cc(F)cc(C)c1CSc1nc2ncsc2c(=O)n1-c1cnc(O)c(F)c1 [Example 43]
22900,60 nM,"O=c1c2scnc2nc(SCc2c(F)cc(F)cc2F)n1-c1cnc(O)c(F)c1 [Example 31, 6-(5-Fluoro-6-hydroxypyridin-3-yl)-5-((2,4,6-trifluorobenzyl)thio)thiazolo[4,5-d]-pyrimidin-7(6H)-one]"
2900,51 nM,O=c1c2scnc2nc(SCc2c(F)cc(F)cc2F)n1-c1ccc(O)c(F)c1F [Example 12]
2700,153 nM,O=c1c2scnc2nc(SCc2ccc(Cl)cc2)n1-c1cnc(O)nc1 [Example 56]
> 100000,69 nM,"O=c1c2scnc2nc(SCc2ccc(Cl)cc2F)n1-c1ccc(O)nc1 [Example 22, 5-((4-Chloro-2-fluorobenzyl)thio)-6-(6-hydroxypyridin-3-yl)thiazolo[4,5-d]pyrimidin-7(6H)-one]"
> 100000,137 nM,O=c1c2scnc2nc(SCc2ccc(C(F)(F)F)cc2F)n1-c1ccc(O)nn1 [Example 65]
3000,51 nM,"O=c1c2scnc2nc(SCc2c(F)cc(F)cc2F)n1-c1cc(F)c(O)nc1F [Example 51, 6-(2,5-Difluoro-6-hydroxypyridin-3-yl)-5-((2,4,6-trifluorobenzyl)thio)thiazolo[4,5-d]-pyrimidin-7(6H)-one]"
3200,61 nM,O=c1c2scnc2nc(SCc2c(F)cc(F)cc2F)n1-c1c(F)cc(O)cc1F [Example 13]
24500,56 nM,O=c1c2scnc2nc(SCc2ccc(Cl)cc2Cl)n1-c1cnc(O)c(F)c1 [Example 39]
900,42 nM,O=c1c2scnc2nc(SCc2c(F)cc(F)cc2F)n1-c1ccc(O)c(F)c1 [Example 11]
27100,136 nM,O=c1c2scnc2nc(SCc2c(F)cc(F)cc2F)n1-c1ccc(O)nc1 [Example 28]
33300,150 nM and 145 nM,Cc1cc(F)ccc1CSc1nc2ncsc2c(=O)n1-c1ccc(O)nc1 [Example 29]
